In US9028463B2 (priority 2008, dated 2015):

Tests used:
type A strain (H1N1) = test system: type A strain (H1N1); design: species or system ddY mice; conditions: mouse, in vivo
type B strain = test system: type B strain; design: species or system ddY mice; conditions: mouse, in vivo

## CCCCCCCCCCCCO [lauryl alcohol]
Type A strain (H1N1)
  HI antibody titer for type A with lauryl alcohol as adjuvant in combination: HI antibody titer for type A increased
Type B strain
  HI antibody titer for type B with lauryl alcohol as adjuvant in combination: remarkable effect was exerted on type B
